From ChEMBL document CHEMBL1140165, “Rotationally constrained 2,4-diamino-5,6-disubstituted pyrimidines: a new class of histamine H4 receptor antagonists with improved druglikeness and in vivo efficacy in pain and inflammation models” (J Med Chem, 2008)
The source made the active and inactive calls. The calls are words filed in the database; no cut-off is given here.

Experiments:
[1] = molecular target: T1, Histamine H4 receptor (Rattus norvegicus, UniProt Q91ZY1); assay: (§1) Antagonist activity at rat histamine H4 receptor expressed in HEK293 cells assessed as inhibition of histamine-induced intracellular calcium elevation by FLIPR assay; type: functional, cell-based
T1 sequence (Q91ZY1 whole entry): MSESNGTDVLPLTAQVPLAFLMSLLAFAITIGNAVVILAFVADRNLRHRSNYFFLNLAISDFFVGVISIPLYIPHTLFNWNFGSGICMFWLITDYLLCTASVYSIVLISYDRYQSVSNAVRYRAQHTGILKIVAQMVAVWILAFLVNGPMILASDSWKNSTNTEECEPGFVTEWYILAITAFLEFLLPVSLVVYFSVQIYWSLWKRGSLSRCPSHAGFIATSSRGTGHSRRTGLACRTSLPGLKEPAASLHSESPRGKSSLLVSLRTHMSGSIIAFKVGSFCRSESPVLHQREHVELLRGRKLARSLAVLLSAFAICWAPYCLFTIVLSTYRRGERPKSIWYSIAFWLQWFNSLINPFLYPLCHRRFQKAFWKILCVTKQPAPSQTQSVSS

[2] = molecular target: T2, Histamine H4 receptor (Mus musculus, UniProt Q91ZY2); assay: Antagonist activity at mouse histamine H4 receptor expressed in HEK293 cells assessed as inhibition of histamine-induced intracellular calcium elevation by FLIPR assay; type: functional, cell-based
T2 sequence (Q91ZY2 whole entry): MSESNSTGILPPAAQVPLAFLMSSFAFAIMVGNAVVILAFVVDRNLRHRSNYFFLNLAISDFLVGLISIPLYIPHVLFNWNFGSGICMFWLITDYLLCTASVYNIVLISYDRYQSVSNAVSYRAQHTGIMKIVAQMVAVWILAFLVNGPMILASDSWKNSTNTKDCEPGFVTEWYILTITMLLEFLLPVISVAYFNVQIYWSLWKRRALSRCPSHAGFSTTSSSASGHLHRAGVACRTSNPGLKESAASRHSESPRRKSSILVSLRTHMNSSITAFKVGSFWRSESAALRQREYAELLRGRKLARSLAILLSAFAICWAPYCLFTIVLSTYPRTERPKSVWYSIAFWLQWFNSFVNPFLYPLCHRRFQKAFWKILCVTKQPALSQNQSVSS

[3] = molecular target: T3, Histamine H4 receptor (Homo sapiens, UniProt Q9H3N8); assay: Displacement of [3H]histamine from human histamine H4 receptor expressed in HEK293 cells; type: cell-based
T3 sequence (Q9H3N8 whole entry): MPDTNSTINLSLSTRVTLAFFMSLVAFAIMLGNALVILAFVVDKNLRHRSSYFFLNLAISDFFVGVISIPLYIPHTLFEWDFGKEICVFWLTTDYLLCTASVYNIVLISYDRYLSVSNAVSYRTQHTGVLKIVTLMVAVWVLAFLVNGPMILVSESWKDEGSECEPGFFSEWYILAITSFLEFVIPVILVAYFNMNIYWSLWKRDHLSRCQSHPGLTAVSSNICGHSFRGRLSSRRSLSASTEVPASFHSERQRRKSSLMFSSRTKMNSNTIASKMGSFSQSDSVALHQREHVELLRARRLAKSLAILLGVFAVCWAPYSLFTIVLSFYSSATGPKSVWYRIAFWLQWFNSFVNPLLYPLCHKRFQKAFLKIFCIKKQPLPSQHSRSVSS

[4] = molecular target: T1, Histamine H4 receptor; assay: Displacement of [3H]histamine from rat histamine H4 receptor expressed in HEK293 cells; type: cell-based
[5] = system: BMMC; assay: Blockade of histamine-induced morphological changes in BALB/c mouse BMMC by flow cytometry; type: functional, cell-based
[6] = Selectivity ratio of Ki for human histamine H4 receptor to Ki for histamine H1 receptor
[7] = Selectivity ratio of Ki for human histamine H4 receptor to Ki for histamine H2 receptor
[8] = species on record: Homo sapiens; assay: Selectivity ratio of Ki for human histamine H4 receptor to Ki for human histamine H3 receptor
[9] = Selectivity ratio of Ki for human histamine H4 receptor to Ki for 5HT1A receptor
[10] = Selectivity ratio of Ki for human histamine H4 receptor to Ki for 5HT1D receptor
[11] = Selectivity ratio of Ki for human histamine H4 receptor to Ki for 5HT2A receptor
[12] = Selectivity ratio of Ki for human histamine H4 receptor to Ki for dopamine D2 receptor
[13] = Selectivity ratio of Ki for human histamine H4 receptor to Ki for adrenergic alpha1 receptor
[14] = molecular target: Prostaglandin G/H synthase 1 (Homo sapiens) (UniProt P23219); assay: Binding affinity at COX1
Prostaglandin G/H synthase 1 (Homo sapiens), sequence (P23219 whole entry): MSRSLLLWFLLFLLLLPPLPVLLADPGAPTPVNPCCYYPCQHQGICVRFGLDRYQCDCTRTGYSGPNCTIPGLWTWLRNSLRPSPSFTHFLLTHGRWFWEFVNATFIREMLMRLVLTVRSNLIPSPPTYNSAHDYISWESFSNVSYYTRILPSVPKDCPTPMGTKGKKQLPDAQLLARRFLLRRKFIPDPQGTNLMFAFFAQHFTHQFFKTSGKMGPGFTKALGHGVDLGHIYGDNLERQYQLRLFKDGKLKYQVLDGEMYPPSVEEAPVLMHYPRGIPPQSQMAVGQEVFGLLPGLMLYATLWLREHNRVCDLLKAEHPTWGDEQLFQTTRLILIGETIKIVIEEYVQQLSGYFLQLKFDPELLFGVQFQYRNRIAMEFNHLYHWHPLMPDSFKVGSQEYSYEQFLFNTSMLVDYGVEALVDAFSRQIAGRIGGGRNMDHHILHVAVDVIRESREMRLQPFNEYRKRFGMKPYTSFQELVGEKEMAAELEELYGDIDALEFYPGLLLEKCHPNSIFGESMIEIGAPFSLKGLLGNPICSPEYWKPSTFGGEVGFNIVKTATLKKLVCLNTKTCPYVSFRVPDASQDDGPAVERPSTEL

[15] = molecular target: T4, Prostaglandin G/H synthase 2 (Homo sapiens) (UniProt P35354); assay: Binding affinity at COX2
T4 sequence (whole entry): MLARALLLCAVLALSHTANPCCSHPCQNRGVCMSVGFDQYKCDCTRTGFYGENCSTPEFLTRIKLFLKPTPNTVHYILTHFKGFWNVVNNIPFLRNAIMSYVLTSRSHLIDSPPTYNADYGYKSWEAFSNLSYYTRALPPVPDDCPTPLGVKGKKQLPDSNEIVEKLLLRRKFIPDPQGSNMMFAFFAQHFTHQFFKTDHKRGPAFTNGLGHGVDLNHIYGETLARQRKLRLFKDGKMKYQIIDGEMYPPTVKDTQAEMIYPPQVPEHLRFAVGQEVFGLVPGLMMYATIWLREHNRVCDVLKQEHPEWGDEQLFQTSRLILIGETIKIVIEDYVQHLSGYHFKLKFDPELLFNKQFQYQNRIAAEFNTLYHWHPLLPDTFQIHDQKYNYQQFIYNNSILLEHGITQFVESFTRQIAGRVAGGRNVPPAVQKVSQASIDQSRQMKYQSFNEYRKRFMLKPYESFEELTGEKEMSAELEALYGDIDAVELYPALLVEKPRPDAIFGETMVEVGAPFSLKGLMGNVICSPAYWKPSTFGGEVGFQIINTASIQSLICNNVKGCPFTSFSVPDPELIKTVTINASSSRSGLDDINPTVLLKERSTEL

[16] = molecular target: Mu-type opioid receptor (Homo sapiens) (UniProt P35372); assay: Binding affinity to mu opioid receptor
Mu-type opioid receptor (Homo sapiens), sequence (P35372 whole entry): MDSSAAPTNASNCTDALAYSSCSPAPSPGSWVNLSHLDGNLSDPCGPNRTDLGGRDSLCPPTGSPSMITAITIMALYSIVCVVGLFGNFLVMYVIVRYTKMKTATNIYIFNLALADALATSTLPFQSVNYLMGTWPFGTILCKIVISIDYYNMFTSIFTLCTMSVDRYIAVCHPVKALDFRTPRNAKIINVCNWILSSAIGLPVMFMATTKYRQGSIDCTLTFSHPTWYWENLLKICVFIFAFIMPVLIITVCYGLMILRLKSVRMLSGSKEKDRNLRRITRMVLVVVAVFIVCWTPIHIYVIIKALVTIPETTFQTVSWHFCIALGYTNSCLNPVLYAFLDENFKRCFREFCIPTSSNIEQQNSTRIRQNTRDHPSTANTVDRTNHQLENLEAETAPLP

[17] = molecular target: Kappa-type opioid receptor (Homo sapiens) (UniProt P41145); assay: Binding affinity to kappa opioid receptor
Kappa-type opioid receptor (Homo sapiens), sequence (P41145 whole entry): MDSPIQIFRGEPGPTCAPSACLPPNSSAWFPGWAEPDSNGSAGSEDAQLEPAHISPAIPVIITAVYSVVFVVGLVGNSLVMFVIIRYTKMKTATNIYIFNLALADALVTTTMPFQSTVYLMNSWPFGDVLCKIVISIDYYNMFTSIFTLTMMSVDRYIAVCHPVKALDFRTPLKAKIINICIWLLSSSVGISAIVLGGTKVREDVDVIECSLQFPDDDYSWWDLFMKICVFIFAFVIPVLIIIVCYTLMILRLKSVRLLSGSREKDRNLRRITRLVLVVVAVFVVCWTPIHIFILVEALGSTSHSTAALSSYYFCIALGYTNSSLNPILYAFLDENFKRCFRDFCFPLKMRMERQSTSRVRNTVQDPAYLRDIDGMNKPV

[18] = molecular target: Delta-type opioid receptor (Homo sapiens) (UniProt P41143); assay: Binding affinity to delta opioid receptor
Delta-type opioid receptor (Homo sapiens), sequence (P41143 whole entry): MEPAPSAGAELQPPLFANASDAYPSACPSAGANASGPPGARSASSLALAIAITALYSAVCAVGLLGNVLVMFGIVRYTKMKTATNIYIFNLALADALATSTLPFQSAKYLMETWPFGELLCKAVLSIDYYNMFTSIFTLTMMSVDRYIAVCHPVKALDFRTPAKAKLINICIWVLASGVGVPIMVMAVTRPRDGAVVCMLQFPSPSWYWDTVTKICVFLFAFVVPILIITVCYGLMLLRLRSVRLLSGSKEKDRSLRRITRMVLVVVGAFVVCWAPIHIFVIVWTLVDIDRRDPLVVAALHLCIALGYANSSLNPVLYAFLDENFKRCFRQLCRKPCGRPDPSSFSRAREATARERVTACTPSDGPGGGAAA

[19] = molecular target: Cannabinoid receptor 1 (Homo sapiens) (UniProt P21554); assay: Binding affinity to CB1 receptor
Cannabinoid receptor 1 (Homo sapiens), sequence (P21554 whole entry): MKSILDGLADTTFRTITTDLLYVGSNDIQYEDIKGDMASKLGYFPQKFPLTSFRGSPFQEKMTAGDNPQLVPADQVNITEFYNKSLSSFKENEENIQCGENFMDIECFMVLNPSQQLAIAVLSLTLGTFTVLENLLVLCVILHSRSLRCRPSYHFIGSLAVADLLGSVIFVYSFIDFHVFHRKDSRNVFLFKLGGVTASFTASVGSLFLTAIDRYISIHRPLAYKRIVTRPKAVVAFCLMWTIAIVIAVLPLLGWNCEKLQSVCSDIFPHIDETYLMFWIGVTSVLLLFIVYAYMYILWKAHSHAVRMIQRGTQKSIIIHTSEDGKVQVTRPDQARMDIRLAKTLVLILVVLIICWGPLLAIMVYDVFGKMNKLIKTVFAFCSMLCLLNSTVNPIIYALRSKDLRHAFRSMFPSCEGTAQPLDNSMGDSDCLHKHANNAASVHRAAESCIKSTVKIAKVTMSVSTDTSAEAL

[20] = molecular target: Cannabinoid receptor 2 (Homo sapiens) (UniProt P34972); assay: Binding affinity to CB2 receptor
Cannabinoid receptor 2 (Homo sapiens), sequence (P34972 whole entry): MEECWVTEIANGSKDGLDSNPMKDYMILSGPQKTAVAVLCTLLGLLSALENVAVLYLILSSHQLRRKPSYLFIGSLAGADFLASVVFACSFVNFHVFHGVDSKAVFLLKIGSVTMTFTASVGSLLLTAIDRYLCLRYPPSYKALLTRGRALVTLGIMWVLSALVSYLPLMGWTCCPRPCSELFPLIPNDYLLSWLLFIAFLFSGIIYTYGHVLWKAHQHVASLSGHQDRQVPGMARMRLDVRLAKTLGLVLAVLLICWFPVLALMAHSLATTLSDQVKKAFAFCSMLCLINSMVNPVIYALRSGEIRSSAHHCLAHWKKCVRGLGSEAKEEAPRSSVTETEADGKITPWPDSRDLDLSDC

[21] = system: Liver microsomes; assay: Metabolic stability in rat liver microsomes; type: ADME, Microsome
[22] = system: Liver microsomes; assay: Metabolic stability in human liver microsomes; type: ADME, Microsome
[23] = Metabolic stability in mouse liver microsomes; type: ADME, Microsome
[24] = Protein binding in rat; type: ADME, organism-based; details: in vivo, read-out: PB (converted)
[25] = Protein binding in human; type: ADME, organism-based; details: in vivo, read-out: PB (converted)
[26] = molecular target: Cytochrome P450 3A4 (Homo sapiens, UniProt P08684); assay: Inhibition of CYP3A4 upto 10 uM; type: ADME
Cytochrome P450 3A4, sequence (P08684 whole entry): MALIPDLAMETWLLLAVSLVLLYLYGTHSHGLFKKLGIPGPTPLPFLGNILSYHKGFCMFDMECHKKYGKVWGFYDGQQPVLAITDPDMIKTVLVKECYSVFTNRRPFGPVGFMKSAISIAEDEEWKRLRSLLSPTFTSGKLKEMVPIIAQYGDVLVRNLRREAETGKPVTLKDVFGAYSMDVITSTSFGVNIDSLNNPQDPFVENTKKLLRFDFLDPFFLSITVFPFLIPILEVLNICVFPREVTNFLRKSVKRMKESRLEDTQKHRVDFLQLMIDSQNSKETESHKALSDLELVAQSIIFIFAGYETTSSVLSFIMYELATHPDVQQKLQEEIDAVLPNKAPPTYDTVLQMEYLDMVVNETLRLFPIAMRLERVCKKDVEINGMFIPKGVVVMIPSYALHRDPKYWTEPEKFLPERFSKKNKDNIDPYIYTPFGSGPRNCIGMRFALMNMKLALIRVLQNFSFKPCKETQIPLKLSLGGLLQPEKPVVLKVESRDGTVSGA

[27] = molecular target: Cytochrome P450 2D6 (Homo sapiens, UniProt P10635); assay: Inhibition of CYP2D6 upto 10 uM; type: ADME
Cytochrome P450 2D6, sequence (P10635 whole entry): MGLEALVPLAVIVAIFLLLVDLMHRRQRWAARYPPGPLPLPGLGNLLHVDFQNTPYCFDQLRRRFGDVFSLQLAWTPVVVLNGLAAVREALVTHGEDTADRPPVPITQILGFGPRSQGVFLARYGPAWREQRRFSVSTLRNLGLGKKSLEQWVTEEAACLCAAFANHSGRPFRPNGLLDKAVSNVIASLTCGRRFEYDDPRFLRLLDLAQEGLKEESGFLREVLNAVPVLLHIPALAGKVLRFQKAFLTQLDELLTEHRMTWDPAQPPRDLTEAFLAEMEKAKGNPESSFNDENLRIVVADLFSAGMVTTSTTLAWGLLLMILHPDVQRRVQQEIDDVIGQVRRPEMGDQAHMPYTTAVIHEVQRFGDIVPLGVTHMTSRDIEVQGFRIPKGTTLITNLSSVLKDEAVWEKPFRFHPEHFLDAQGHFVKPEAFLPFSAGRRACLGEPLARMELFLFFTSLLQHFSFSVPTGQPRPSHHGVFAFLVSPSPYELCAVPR

[28] = molecular target: Cytochrome P450 2C9 (Homo sapiens, UniProt P11712); assay: Inhibition of CYP2C9 upto 10 uM; type: ADME
Cytochrome P450 2C9, sequence (P11712 whole entry): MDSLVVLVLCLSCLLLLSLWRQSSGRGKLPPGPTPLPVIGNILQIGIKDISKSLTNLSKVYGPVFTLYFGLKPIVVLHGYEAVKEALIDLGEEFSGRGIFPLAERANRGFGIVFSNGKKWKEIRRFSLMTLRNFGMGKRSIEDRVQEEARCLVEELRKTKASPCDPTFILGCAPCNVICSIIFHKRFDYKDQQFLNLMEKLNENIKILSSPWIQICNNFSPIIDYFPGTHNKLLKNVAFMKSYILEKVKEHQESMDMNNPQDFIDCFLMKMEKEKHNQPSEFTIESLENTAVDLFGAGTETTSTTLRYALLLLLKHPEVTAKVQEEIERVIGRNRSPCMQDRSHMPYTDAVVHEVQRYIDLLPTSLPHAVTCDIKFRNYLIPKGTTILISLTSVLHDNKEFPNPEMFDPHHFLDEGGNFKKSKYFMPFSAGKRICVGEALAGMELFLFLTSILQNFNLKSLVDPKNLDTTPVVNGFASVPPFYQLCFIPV

[29] = Half life in rat at 10 mg/kg, iv; type: ADME, organism-based; design: dose 10 mg/kg, route intravenous; details: in vivo
[30] = Blood clearance in rat at 10 mg/kg, iv; type: ADME, organism-based; design: dose 10 mg/kg, route intravenous; details: whole blood
[31] = Terminal volume of distribution in rat at 10 mg/kg, iv; type: ADME, organism-based; design: dose 10 mg/kg, route intravenous; details: in vivo, read-out: Vbeta
[32] = Fractional bioavailability in rat at 10 mg/kg, iv and 10 mg/kg, po; type: ADME, organism-based; details: in vivo
[33] = system: Mus musculus; assay: Antiinflammatory activity against ip dosed BALB/c mouse assessed as inhibition of zymosan-induced peritonitis after 2 hrs pretreated 30 mins before zymosan challenge; type: functional
[34] = system: Mus musculus; assay: Inhibition of clobenpropit-induced itching in ip dosed CD1/ICR mouse assessed as blockade of scratching in hind paw for 25 mins pretreated 30 mins before clobenpropit challenge; type: functional
[35] = molecular target: T3, Histamine H4 receptor; details: HEK293
[36] = molecular target: Histamine H4 receptor (Rattus norvegicus) (UniProt Q91ZY1); assay: as §1; type: functional, cell-based
Histamine H4 receptor (Rattus norvegicus), sequence (Q91ZY1 whole entry): as the sequence (Q91ZY1 whole entry) above

[37] = molecular target: Histamine H4 receptor (Rattus norvegicus) (UniProt Q91ZY1); assay: Antagonist activity at rat histamine H4 receptor expressed in HEK293 cells assessed as inhibition of histamine-induced intracellular calcium elevation by FLIPR assay relative to histamine; type: functional, cell-based

Nc1nc2c(c(N3CCNCC3)n1)CCCc1ccc(F)cc1-2
EC50 [1]: 6.03 nM | EC50 [2]: 4.79 nM | Ki ([3]; read-out: Ki): 5.1 nM | Ki [4]: 1.45 nM | Activity [5]: Active | Ratio Ki [6]: > 1290 | Ratio Ki [7]: > 1820 | Ratio Ki [8]: 470 | Ratio Ki [9]: 3070 | Ratio Ki [10]: 850 | Ratio Ki [11]: 765 | Ratio Ki [12]: > 2000 | Ratio Ki [13]: 1220 | Activity [14]: inactive | Activity [15]: inactive | Activity [16]: inactive | Activity [17]: inactive | Activity [18]: inactive | Activity [19]: inactive | Activity [20]: inactive | Stability [21]: 200 pmol/min/mg | Stability [22]: 27.3 pmol/min/mg | Stability [23]: 32.4 pmol/min/mg | fraction unbound [24]: 0.34 | fraction unbound [25]: 0.39 | Activity [26]: Not Active | Activity [27]: Not Active | Activity [28]: Not Active | half-life [29]: 3.5 h | clearance [30]: 60 mL/min/kg | Vd [31]: 18.2 L/kg | bioavailability [32]: 18% | ED50 [33]: 134 µmol/kg | ED50 [34]: 10 µmol/kg | pKb [35]: 8.01

Nc1nc2c(c(N3CCNCC3)n1)CCCCC2c1ccccc1 (centres undefined)
EC50 [1]: 55 nM | EC50 [2]: 45.7 nM | Ki ([3]; read-out: Ki): 39.8 nM | Ki [4]: 4.47 nM | Activity [5]: Active | Ratio Ki [6]: > 160 | Ratio Ki [7]: > 230 | Ratio Ki [8]: 56 | Ratio Ki [9]: 11 | Ratio Ki [10]: 81 | Ratio Ki [11]: 2.2 | Ratio Ki [12]: 480 | Ratio Ki [13]: 125 | Stability [21]: 108 pmol/min/mg | Stability [22]: 28.5 pmol/min/mg | Stability [23]: 10.9 pmol/min/mg | fraction unbound [24]: 0.24 | fraction unbound [25]: 0.41 | Activity [26]: Not Active | Activity [27]: Not Active | Activity [28]: Not Active | half-life [29]: 3.2 h | clearance [30]: 80 mL/min/kg | Vd [31]: 22 L/kg | bioavailability [32]: 31% | ED50 [33]: 79 µmol/kg | ED50 [34]: 10 µmol/kg | pKb [35]: 7.24

CN[C@@H]1CCN(c2nc(N)nc3c2CCc2ccccc2-3)C1
pKb [36]: 7.66 | pKb [35]: 8.29

Nc1nc2c(c(N3CCNCC3)n1)Cc1ccccc1-2
EC50 [1]: 20 nM | Efficacy [37]: 96% | Ki ([3]; read-out: pKi (converted)): 12.9 nM | Ki [4]: 4.79 nM | Stability [21]: 65.8 pmol/min/mg | Stability [22]: 18.7 pmol/min/mg | Stability [23]: 43.6 pmol/min/mg | fraction unbound [24]: 0.31 | fraction unbound [25]: 0.72 | Activity [26]: Not Active | Activity [27]: Not Active | Activity [28]: Not Active | pKb [35]: 8.75

CN[C@@H]1CCN(c2nc(N)nc3c2CCCCCc2ccccc2-3)C1
pKb [36]: 7.25 | Activity [5]: inactive | pKb [35]: 7.6

CN1CCN(c2cc(-c3ccccc3)nc(N)n2)CC1
Efficacy [37]: 79% | Ki ([3]; read-out: pKi (converted)): 5.01 nM | Ki [4]: 14.1 nM | Stability [21]: 168 pmol/min/mg | Stability [22]: 22 pmol/min/mg | Stability [23]: 119 pmol/min/mg | fraction unbound [24]: 0.35 | fraction unbound [25]: 0.51 | Activity [26]: Not Active | Activity [27]: Not Active | Activity [28]: Not Active | pKb [35]: 8.39

CN[C@@H]1CCN(c2nc(N)nc3c2CCCCc2ccccc2-3)C1
pKb [36]: 7.5 | Activity [5]: inactive | pKb [35]: 8.15

CN1CCN(c2nc(N)nc3c2CCc2ccccc2-3)CC1
EC50 [1]: 15.5 nM | Efficacy [37]: 76% | Ki ([3]; read-out: pKi (converted)): 15.5 nM | Ki [4]: 5.37 nM | Stability [21]: 192 pmol/min/mg | Stability [22]: 102 pmol/min/mg | Stability [23]: 195 pmol/min/mg | fraction unbound [24]: 0.3 | fraction unbound [25]: 0.22 | Activity [26]: Not Active | Activity [27]: Not Active | Activity [28]: Not Active | pKb [35]: 8.08

Nc1nc2c(c(N3CCNCC3)n1)CCc1ccccc1-2
EC50 [1]: 24 nM | Efficacy [37]: 52% | Ki ([3]; read-out: pKi (converted)): 52.5 nM | Ki [4]: 9.12 nM | Stability [21]: 104 pmol/min/mg | Stability [22]: 45.9 pmol/min/mg | Stability [23]: 18.4 pmol/min/mg | fraction unbound [24]: 0.73 | fraction unbound [25]: 0.59 | Activity [26]: Not Active | Activity [27]: Not Active | Activity [28]: Not Active | pKb [35]: 7.58

CN[C@@H]1CCN(c2nc(N)nc3c2Cc2ccccc2-3)C1
EC50 [1]: 19.1 nM | pKb [35]: 8.5
